Where a name gives a salt, the structure may show the parent alone. Read-outs that look alike come from different tables or passages of the source.
Key:
[1] = tested on: calcium ionophore-induced LTB4 production in human blood; assay: Inhibition of calcium ionophore-induced LTB4 production in human blood (HWB); type: cell-based; conditions: read-out: Inhibition of Calcium Ionophore-induced LTB4 Production in Human Blood (HWB) IC50
Method: LTB4 and Thromboxane Production by Calcium Ionophore Stimulated Human Blood for LTB4 Hydrolase Inhibitor Activity
Human blood, collected in heparin-containing Vacutainer tubes, was diluted 1:4 with RPMI-1640 media and 200 μl of the diluted blood was added into each of a 96-well microtiter plate. […] After incubating for 15 minutes at 37° C. in a humidified incubator, calcium ionophore A13187 (Sigma Chemical Co., St. Louis, Mo.) was added to a final concentration of 20 mcg/ml and the incubation continued under the same conditions for an additional 10 minutes to allow LTB4 formation. The reaction was terminated by centrifugation (833 g, 10 minutes at 4° C.) and supernatant were analyzed for LTB4 and thromboxane by commercially available enzyme-linked immunoassays (Caymen Chemical Co., Ann Arbor, Mich.) according to the manufacturer's instructions. The IC50 of each test compound was determined from the amount of inhibition of LTB4 production as compared to an essentially identical assay in which no inhibitor compound was present.

[2] = tested on: LTB4 production by calcium ionophore stimulated mouse blood; assay: Murine ex vivo LTB4 inhibition (calcium ionophore stimulated mouse blood after oral dosing); type: in vivo; conditions: for inhibition at 10 mg/kg: read-out: Murine Ex Vivo LTB4 Inhibition, % I LTB4 at 1 hour after administration
Method: The compounds were administered by oral garage to adult male outbred mice weighing approximately 20-30 gm at a dose of 10 mg/kg body weight. […] The mixture was incubated for 10 minutes at 37° C. in a humidified incubator. The reaction was terminated by centrifugation (833 g. 10 minutes at 4° C.). Supernatant were analyzed for LTB4 and thromboxane by commercially available enzyme-linked immunoassays [Caymen Chemical Co., Ann Arbor, Mich.] in accordance with the manufacturer's instructions. The percent inhibition was determined by comparison to animals treated identically except that the solution administered by oral gavage was devoid of inhibitor compound.

[3] = target: T1, recombinant human LTA4 hydrolase (rhLTAH) (Homo sapiens, UniProt P09960); assay: Recombinant Human LTA Hydrolase Assay for LTA Hydrolase Inhibitor Activity; type: biochemical; conditions: 10 min preincubation with 250 ng enzyme, LTA4 substrate, room temperature, pH 7.4
T1 construct: made in house; host or cells: Spodoptera frugiperda Sf-9 cells (baculovirus)
T1 sequence (P09960 1-611): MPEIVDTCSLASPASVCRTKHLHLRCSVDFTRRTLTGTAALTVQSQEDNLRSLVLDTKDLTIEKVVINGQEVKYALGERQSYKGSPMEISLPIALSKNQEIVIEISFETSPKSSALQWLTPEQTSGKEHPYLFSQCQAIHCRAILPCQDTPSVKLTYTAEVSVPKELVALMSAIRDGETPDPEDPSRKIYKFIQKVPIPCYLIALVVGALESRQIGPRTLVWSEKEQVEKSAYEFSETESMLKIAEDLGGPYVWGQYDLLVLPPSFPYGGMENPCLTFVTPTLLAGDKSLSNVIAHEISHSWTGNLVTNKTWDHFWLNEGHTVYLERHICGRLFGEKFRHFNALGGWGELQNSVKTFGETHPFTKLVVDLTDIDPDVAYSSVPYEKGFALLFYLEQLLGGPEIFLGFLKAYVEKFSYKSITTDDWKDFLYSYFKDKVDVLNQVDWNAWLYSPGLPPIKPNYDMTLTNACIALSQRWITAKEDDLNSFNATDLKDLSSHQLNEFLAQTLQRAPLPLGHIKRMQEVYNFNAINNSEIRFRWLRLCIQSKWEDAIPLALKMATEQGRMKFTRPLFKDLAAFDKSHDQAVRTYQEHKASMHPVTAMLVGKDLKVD
Method: Compounds of the present invention were tested for LTA hydrolase inhibitor activity against recombinant human LTA hydrolase (rhLTAH).
One or more predetermined amounts of a compound of the invention were incubated in assay buffer (0.1 M potassium phosphate, 5 mg/ml fatty acid free BSA, 10% DMSO, pH 7.4) for 10 minutes at room temperature with 250 ng of recombinant hLTA4 H to allow binding, if any, between the enzyme and inhibitor. […] LTA4 (free acid) was thawed and diluted in assay buffer (minus DMSO) to a concentration of 350 ng/ml and 25 μl (8ng) of LTA4 substrate was added to the reaction mixture (total volume of reaction mixture=200 μl at time zero. Each reaction was carried out at room temperature for 10 minutes. The reaction was stopped by diluting 25 μl of the reaction mixture with 500 μl of the assay buffer without DMSO. LTA4 was quantified in the diluted sample by a commercially available enzyme-linked immunoassay [Caymen Chemical Col. Ann Arbor, Mich.] using the method recommended in the manufacturer's instructions and compared to the amount of LTA4 produced in a negative control (i.e., essentially identical conditions except without addition of an inhibitor compound). The IC50 was routinely calculated from the data produced.

LTA4 hydrolase = conditions: cited from earlier work
[4] = human whole blood diluted 1:4, 15 min preincubation at 37° C., ionophore 20 mcg/ml, 10 min
[5] = mouse, oral gavage, 10 mg/kg (* indicates 50 mg/kg), 1 hour after administration, ionophore A23187 20 mcg/ml

| Compound | IC50 [1, 4] [nM] | inhibition at 10 mg/kg [2, 5] [%] | IC50 [3] [nM] | Murine Ex Vivo LTB4 Inhibition, % I LTB4 at 1 hour after administration [2, 5] [%] | LTA4 hydrolase inhibitory activity (LTA4 hydrolase) | IC50 ([1]; Homo sapiens) [nM] | inhibition at 10 mg/kg ([2]; Mus musculus, po, 1 h) [%] |
| --- | --- | --- | --- | --- | --- | --- | --- |
| CN(CCCOc1ccc(Cc2cccs2)cc1)CCC(=O)NS(C)(=O)=O [Example 10, N-(Methylsulfonyl)-3-[methyl[3-[4-[(2-thienyl)-methyl]phenoxy]propyl]amino]propanamide] | 61 | 93 | 0.5 |  |  |  |  |
| N-(methylsulfonyl)-3-[propyl[3-[4-[(3-thienyl)methyl]phenoxy]propyl]-amino]propanamide [Example 20] | 150 |  | 150 | 56 |  |  |  |
| CC(C)N(CCCOc1ccc(Cc2ccsc2)cc1)CCC(=O)NS(=O)(=O)c1ccccc1 [Example 21] | 150 | 60 | 90 |  |  |  |  |
| CC(C)N(CCCOc1ccc(Cc2ccccc2)cc1)CCC(=O)NS(C)(=O)=O [Example 27] | 100 |  | 47 | 44 |  |  |  |
| C[C@H](CS)C(=O)N1CCC[C@H]1C(=O)O [captopril] |  |  |  |  | exhibit LTA4 hydrolase inhibitory activity |  |  |
| CN(CCCOc1ccc(Cc2cccs2)cc1)CCC(=O)NS(=O)(=O)c1ccccc1 [Example 9] | 79 | 87 | < 0.5 |  |  |  |  |
| CCN(CCCOc1ccc(Cc2ccccc2)cc1)CCC(=O)NS(=O)(=O)c1ccccc1 [Example 29] | 130 | 65 | 79 |  |  |  |  |
| CC(C)(C)N(CCCOc1ccc(Cc2ccccc2)cc1)CCC(=O)NS(C)(=O)=O [Example 25] | 110 | 45 | 100 |  |  |  |  |
| CN(CCCOc1ccc(Cc2ccccc2)cc1)CCC(=O)NS(=O)(=O)c1ccccc1 [Example 22] |  |  | 1 |  |  | 75 | 94 |
| CCN(CCCOc1ccc(Cc2ccccc2)cc1)CCC(=O)NS(C)(=O)=O [Example 28] | 180 | 89 | 540 |  |  |  |  |
| CN(CCCOc1ccc(Cc2ccsc2)cc1)CCC(=O)NS(C)(=O)=O [Example 18, N-(methylsulfonyl)-3-[methyl[3-[4-[(3-thienyl)methyl]phenoxy]propyl]-amino]propanamide] | 190 | 94 | 20 |  |  |  |  |
| CC(C)C[C@H](NC(=O)[C@@H](O)[C@H](N)Cc1ccccc1)C(=O)O [bestatin] |  |  |  |  | exhibit LTA4 hydrolase inhibitory activity |  |  |
| CCN(CCCOc1ccc(Cc2cccs2)cc1)CCC(=O)NS(C)(=O)=O [Example 11, 3-[Ethyl[3-[4-[(2-thienyl)methyl]phenoxy]propyl]-amino]-N-(methylsulfonyl)propanamide monohydrochloride] | 66 | 86 | 33 |  |  |  |  |
| CC(C)N(CCCOc1ccc(Cc2ccsc2)cc1)CCC(=O)NS(C)(=O)=O [Example 16] | 200 | 85 | 450 |  |  |  |  |
| CC(C)N(CCCOc1ccc(Cc2cccs2)cc1)CCC(=O)NS(C)(=O)=O [Example 12, 3-[(1-methylethyl)[3-[4-[(2-thienyl)methyl-]phenoxy]propyl]-amino]-N-(methylsulfonyl)-propanamide monohydrochloride] | 80 | 68 | 12 |  |  |  |  |
| CS(=O)(=O)NC(=O)CCN(CCCOc1ccc(Cc2ccccc2)cc1)C1CC1 [Example 24] | 2710 |  | 2160 |  |  |  |  |
| CN(CCCOc1ccc(Cc2ccsc2)cc1)CCC(=O)NS(=O)(=O)c1ccccc1 [Example 17, monohydrochloride] | 130 | 93 | 0.5 |  |  |  |  |
| CC(C)N(CCCOc1ccc(Cc2ccccc2)cc1)CCC(=O)NS(C)(=O)=O [Example 26] | 220 | 81 | 160 |  |  |  |  |
| N-(phenylsulfonyl)-3-[propyl[3-[4-[(3-thienyl)methyl]phenoxy]propyl]-amino]propanamide monohydrochloride [Example 19] | 75 |  | 90 | 45 |  |  |  |
| CN(CCCOc1ccc(Cc2ccccc2)cc1)CCC(=O)NS(C)(=O)=O [Example 23] | 70 | 100 | 1.3 |  |  |  |  |
| CCN(CCCOc1ccc(Cc2ccsc2)cc1)CCC(=O)NS(C)(=O)=O [Example 15, 3-[Ethyl[3-[4-[(3-thienyl)methyl]phenoxy]propyl]-amino]-N-(methylsulfonyl)propanamide monohydrochloride] | 230 | 79 |  |  |  |  |  |
| CCN(CCCOc1ccc(Cc2ccsc2)cc1)CCC(=O)NS(=O)(=O)c1ccccc1 [Example 14, monohydrate] | 82 | 87 | 11 |  |  |  |  |
| CC(C)N(CCCOc1ccc(Cc2cccs2)cc1)CCC(=O)NS(=O)(=O)c1ccccc1 [Example 13, 3-[(1-methylethyl)[3-[4-[(2-thienyl)methyl-]phenoxy]propyl]amino]-N-(phenylsulfonyl)-propanamide, monohydrochloride] | 40 |  | 2.3 |  |  |  |  |

— patent US6162823A, “LTA4 hydrolase inhibitors” (G.D. Searle & Co., priority 1997, dated 2000)
